The test can be described thus: Bristol Stool Chart. It counts as in vivo, human. Conditions: for Bristol Stool: GLU condition, mean ± SD. An excerpt:
The remainder of the study consisted of two identical patterns of testing with the exception of what supplementation protocol was followed. FIG. 1 provides a flowchart of the experimental design. Prior to each visit, food and physical activity logs were completed encompassing four days prior to the scheduled laboratory visit. The four days consisted of two weekend days and two weekdays. Each participant reported to the laboratory for a baseline measurement of height, weight, heart rate, and blood pressure. During this visit, participants completed the Bristol Stool Chart and Gastrointestinal Symptom Rating Scale (GSRS) to assess bowel habits and potential gastrointestinal symptoms. Participants were given instructions on how to collect a stool sample and were instructed to do so within 24 hours of each planned study visit. At the completion of this study visit, participants were provided with their first assigned supplement (either PLA [placebo] or GLU [glucosamine]) and instructed to begin supplementation 21 days prior to their second visit. Participants were instructed to collect their second stool sample on the day of their final supplementation dose. On the morning of their second study visit, participants reported to the laboratory after following identical pre-study instructions as previous visits (i.e., fasting, abstention from caffeine and exercise). Study participants again completed assessments for height, weight, heart rate, blood pressure, and questionnaires regarding their bowel habits and gastrointestinal symptoms while also providing their second stool sample and turning in completed food and activity logs. A washout period lasting a minimum of 14 days and a maximum of 21 days separated each phase of the crossover as shown in FIG. 1. […] In a double-blind manner, a glucosamine supplement (GLU) or a maltodextrin placebo (PLA) was distributed in identical opaque capsules to all participants. On a daily basis, participants were instructed to ingest three capsules, each containing 1,000 mg of glucosamine hydrochloride (GlucosaGreen®, TSI Group Ltd. MT, USA) or a placebo (maltodextrin) identical in appearance for a total of 21 days. Each visit at the beginning of the supplementation regimen (Visits 1 and 4, respectively; See FIG. 1) occurred on or before the first day of supplementation while the final day of supplementation occurred the day before each participant's follow-up visit for that study period (Visits 2 and 4, respectively). Participants were instructed to ingest the supplement 15-30 minutes before breakfast with eight fluid ounces of cold water. In the case of a missed dose, participants were instructed to consume the missed dose as soon as possible with a meal. […]

The record followed here is patent US20220395522A1, “Methods of Use of Glucosamine for Increasing Nitrogen Retention” (TSI Bioproducts (Xuzhou) Co., Ltd., priority 2021, published 2022).

For `Cl.N[C@H]1C(O)O[C@H](CO)[C@@H](O)[C@@H]1O` (stereo partly shown) [GLU, glucosamine hydrochloride], the “Bristol Stool” value is listed as 3.6 ± 0.8 (Post 21 days, 3 x 1,000 mg/day oral) and 3.3 ± 0.8 (Pre (baseline)). The “Bristol Stool, %” value (PLA vs. GLU, between-group) is recorded as −19.9%. Under “Post vs Pre, p=0.10”, the “Changes in Bristol Stool chart ratings within group” value is on record as “no significant changes”.
